These results are taken from US7763612B2, “Therapeutic amine-arylsulfonamide conjugate compounds” (Algebra, Inc., priority 2006, dated 2010).

Where two headings read alike, the source gives them in different places. Bounds are passed on as bounds.

In data set [1] the test system is tetrabenazine-induced behavioral effects. In words: Antitetrabenazine activity in the mouse (prevention of tetrabenazine-induced behavioral effects). In kind it is in vivo. Conditions: for ED50: Mus musculus, ip, read-out: ED50 (mg/kg i.p.), antitetrabenazine activity. The text has this:
Substances having an antidepressant action antagonize a number of the behavioral effects induced by tetrabenazine including locomotor activity, ptosis and hypothermia. Tetrabenazine-induced behavioral effects can be quantified using a composite index, X, where X=(1−ptosis score)/(activity score*[Temp., treated/Temp., control]) as described by Cooper, B. R., J. L. Howard, and F. E. Soroko, Animal models used in prediction of antidepressant effects in man, Journal of Clinical Psychiatry 44:63-6, 1983). 50% effective dose (ED50) values indicate a dose of compound with ‘antitetrabenazine activity’ at which the composite index, X, induced by 20 mg/kg of tetrabenazine intraperitoneally is reduced 50%.
Prevention of tetrabenazine-induced behavioral effects were measured using a modification of the method of Vernier et al., First Hahnemann Symposium on Psychosomatic Medicine, ed. Nodim and Moyer, pub Lea and Febiger, Philadelphia 1962 as described previously (Cooper, B. R., J. L. Howard, and F. E. Soroko, Animal models used in prediction of antidepressant effects in man, Journal of Clinical Psychiatry 44:63-6, 1983). Mice, groups of 12 CD1 males each, were injected intraperitoneally (i.p.) with the compounds (1420), (20a) and furosemide (10) suspended in a 0.5% 4000-centipoise methyl cellulose solution at 3 mg/mL or vehicle. All injections were administered at a vehicle volume of 10 ml/kg. The 50% effective dose (ED50) of each compound was determined by linear regression analysis of log probit plots of dose effect curves and is reported in Table 3: […]

Data set [2] deals with Mice, CD1 males. In words: Safety and toxicity dose-ranging study, observation for seizures and deaths after oral administration. In kind it is in vivo, mouse. The following applies: CD1 male mice, p.o., doses up to 300 mg/kg, observed for one hour. On the procedure: Safety and Toxicity: Dose-ranging studies were performed to determine the range of safe doses for compound (1420). […] Mice, groups of 6 CD1 males each, were administered compound suspended in a 0.5% 4000-centipoise methyl cellulose vehicle at a volume of 10 mL/kg p.o. using a 22-gauge stainless steel mouse feeding tube and 1-mL syringe at doses up to 300 mg/kg.

Setting [3] is: CD1 male mice, i.p., dose at which composite index X induced by 20 mg/kg tetrabenazine i.p. is reduced 50%.

For `C[C@@H]1CO[C@@](O)(c2cc(F)cc(F)c2)[C@H](C)N1C(=O)OCOC(=O)c1cc(S(N)(=O)=O)c(Cl)cc1NCc1ccco1` [compound 1420, (2S,3S,5R)-4-[5-(aminosulfonyl)-4-chloro-2-[(2-furanylmethyl)amino]benzoyloxymethoxycarbonyl]-2-(3,5-difluorophenyl)-3,5-dimethyl-2-morpholinol], the “inhibition of tetrabenazine-induced behavioral effects” value in data set [1] (CD1 male mice, i.p.) is “inhibited tetrabenazine-induced behavioral effects”. Moreover, the ED50 in data set [1] (setting [3]) was 3.6 mg/kg. Also, the “serious adverse events (seizures and deaths)” value in data set [2] is given as “No seizures or deaths were observed in any animals at any dose”.
As for `C[C@@H]1CO[C@@](O)(c2cc(F)cc(F)c2)[C@H](C)N1` [20a, (2S,3S,5R)-2-(3,5-difluorophenyl)-2-hydroxy-3,5-dimethylmorpholine], in data set [1] (CD1 male mice, i.p.), the “inhibition of tetrabenazine-induced behavioral effects” value is “inhibited tetrabenazine-induced behavioral effects”. The ED50 in data set [1] was 0.2 mg/kg.
For the compound `NS(=O)(=O)c1cc(C(=O)O)c(NCc2ccco2)cc1Cl` [furosemide, 5-(aminosulfonyl)-4-chloro-2-[(2-furanylmethyl)amino]benzoic acid], in data set [1] (setting [3]), the ED50 was over 30 mg/kg.
